Here are results for 1 compound from ChEMBL document CHEMBL4831500, “Discovery of first-in-class imidazothiazole-based potent and selective ErbB4 (HER4) kinase inhibitors” (Eur J Med Chem, 2021).

SMILES strings stand for the structures.

For data set [1], the target named is Voltage-gated inwardly rectifying potassium channel KCNH2 (Homo sapiens, UniProt Q12809). Description: Inhibition of human ERG incubated for 3 hrs by competitive fluorescence tracer binding based assay.
In data set [2] the target is Serine/threonine-protein kinase B-raf (Homo sapiens, UniProt P15056). The experiment in a line: Inhibition of wild type B-RAF (unknown origin) incubated for 40 mins in presence of Mg/ATP mix by [gamma p33]-ATP based scintillation counting method.
The target of another data set is Cytochrome P450 3A4 (Homo sapiens, UniProt P08684). Description: Inhibition of CYP3A4 (unknown origin) using BOMCC as a substrate incubated for 20 mins by fluorescence based analysis. It is filed as ADME.
Chain of Cytochrome P450 3A4 (P08684 whole entry): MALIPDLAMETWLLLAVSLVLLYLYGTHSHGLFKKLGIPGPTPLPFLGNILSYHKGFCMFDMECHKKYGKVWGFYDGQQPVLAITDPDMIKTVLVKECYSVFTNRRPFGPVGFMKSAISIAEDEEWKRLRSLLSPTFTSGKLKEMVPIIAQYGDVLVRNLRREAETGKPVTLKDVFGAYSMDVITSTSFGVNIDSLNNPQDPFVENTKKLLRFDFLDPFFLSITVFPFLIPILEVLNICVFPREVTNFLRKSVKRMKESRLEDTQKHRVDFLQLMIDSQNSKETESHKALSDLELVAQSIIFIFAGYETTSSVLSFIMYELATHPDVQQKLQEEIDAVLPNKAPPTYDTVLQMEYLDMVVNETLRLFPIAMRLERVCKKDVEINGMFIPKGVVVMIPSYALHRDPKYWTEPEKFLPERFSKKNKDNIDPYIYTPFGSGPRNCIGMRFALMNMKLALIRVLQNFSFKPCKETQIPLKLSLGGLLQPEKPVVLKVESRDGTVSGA
Data set [3] concerns the target Epidermal growth factor receptor (Homo sapiens, UniProt P00533, T790M). The experiment in a line: Inhibition of EGFR- T790M mutant (unknown origin) incubated for 40 mins in presence of Mg/ATP mix by [gamma p33]-ATP based scintillation counting method.
The target in data set [4] is Epidermal growth factor receptor (Homo sapiens, UniProt P00533, L858R/T790M). The experiment in a line: Inhibition of EGFR T790M/L858R mutant (unknown origin) incubated for 40 mins in presence of Mg/ATP mix by [gamma p33]-ATP based scintillation counting method.
Chain of Epidermal growth factor receptor (Homo sapiens, UniProt P00533, L858R/T790M) (P00533 25-1210 T790M/L858R limits assumed): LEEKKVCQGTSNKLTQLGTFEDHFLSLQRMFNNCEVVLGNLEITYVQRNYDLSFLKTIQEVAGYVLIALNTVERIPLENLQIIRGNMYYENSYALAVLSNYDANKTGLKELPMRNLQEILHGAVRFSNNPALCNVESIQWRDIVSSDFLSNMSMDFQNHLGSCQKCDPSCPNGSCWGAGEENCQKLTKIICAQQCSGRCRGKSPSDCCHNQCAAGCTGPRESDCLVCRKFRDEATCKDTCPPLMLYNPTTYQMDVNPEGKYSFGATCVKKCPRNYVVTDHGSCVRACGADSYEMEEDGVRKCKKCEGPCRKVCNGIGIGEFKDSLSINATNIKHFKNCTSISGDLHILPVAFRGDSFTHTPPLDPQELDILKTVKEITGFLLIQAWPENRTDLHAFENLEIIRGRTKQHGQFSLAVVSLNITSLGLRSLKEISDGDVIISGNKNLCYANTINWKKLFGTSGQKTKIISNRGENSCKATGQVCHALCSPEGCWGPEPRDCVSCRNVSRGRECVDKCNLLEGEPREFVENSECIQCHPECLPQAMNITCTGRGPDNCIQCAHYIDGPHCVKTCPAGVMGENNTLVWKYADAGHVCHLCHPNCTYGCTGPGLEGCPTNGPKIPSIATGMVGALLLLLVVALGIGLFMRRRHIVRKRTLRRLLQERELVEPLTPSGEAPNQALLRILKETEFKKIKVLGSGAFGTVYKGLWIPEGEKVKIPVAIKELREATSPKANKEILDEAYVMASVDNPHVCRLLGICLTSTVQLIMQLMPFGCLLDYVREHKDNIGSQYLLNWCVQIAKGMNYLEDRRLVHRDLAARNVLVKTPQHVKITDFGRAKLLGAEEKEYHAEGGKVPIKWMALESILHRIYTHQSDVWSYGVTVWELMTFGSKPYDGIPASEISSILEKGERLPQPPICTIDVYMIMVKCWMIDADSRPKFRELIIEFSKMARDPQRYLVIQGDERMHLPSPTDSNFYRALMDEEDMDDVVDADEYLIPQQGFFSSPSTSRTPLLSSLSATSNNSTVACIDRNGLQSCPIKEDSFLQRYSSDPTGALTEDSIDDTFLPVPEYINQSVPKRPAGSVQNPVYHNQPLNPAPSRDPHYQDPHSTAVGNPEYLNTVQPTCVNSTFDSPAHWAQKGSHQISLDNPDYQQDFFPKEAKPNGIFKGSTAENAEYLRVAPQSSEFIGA
Data set [5] has as its target Vascular endothelial growth factor receptor 2 (Homo sapiens, UniProt P35968). Description: Inhibition of KDR (unknown origin) incubated for 40 mins in presence of Mg/ATP mix by [gamma p33]-ATP based scintillation counting method.
The target in data set [6] is Serine/threonine-protein kinase A-Raf (Homo sapiens, UniProt P10398). Description: Inhibition of A-RAF (unknown origin) incubated for 40 mins in presence of Mg/ATP mix by [gamma p33]-ATP based scintillation counting method.
The test system of data set [7] is Panel NCI-60 (60 carcinoma cell lines). The experiment in a line: Growth inhibition of human panel NCI-60 (60 carcinoma cells) assessed as growth percent at 10 uM measured after 48 hrs by SRB assay relative to control. Format: functional. The following applies: read-out: Activity. Background: The SRB assay estimates cell density from bound dye.
Data set [8] has as its target T1, Receptor tyrosine-protein kinase erbB-4 (Homo sapiens, UniProt Q15303). The experiment in a line: Inhibition of ErbB4 (unknown origin) at 10 uM incubated for 40 mins in presence of Mg/ATP mix by [gamma p33]-ATP based scintillation counting method relative to control.
Data set [9] concerns the target Serine/threonine-protein kinase B-raf (Homo sapiens, UniProt P15056, V600E). The experiment in a line: Inhibition of BRAF V600E mutant (unknown origin) incubated for 40 mins in presence of Mg/ATP mix by [gamma p33]-ATP based scintillation counting method.
Data set [10] addresses Dual specificity mitogen-activated protein kinase kinase 2 (Homo sapiens, UniProt P36507). Description: Inhibition of MEK2 (unknown origin) incubated for 40 mins in presence of Mg/ATP mix by [gamma p33]-ATP based scintillation counting method.
The target of data set [11] is Receptor-type tyrosine-protein kinase FLT3 (Homo sapiens, UniProt P36888). Description: Inhibition of FLT-3(unknown origin) incubated for 40 mins in presence of Mg/ATP mix by [gamma p33]-ATP based scintillation counting method.
For data set [12], the target named is Epidermal growth factor receptor (Homo sapiens, UniProt P00533, L861Q). Description: Inhibition of EGFR- L861Q mutant (unknown origin) incubated for 40 mins in presence of Mg/ATP mix by [gamma p33]-ATP based scintillation counting method.
A further data set addresses hERG (KCNH2) (Homo sapiens, UniProt Q12809). Description: Safety index, ratio of test compound IC50 to E-4031 IC50 for inhibition of human ERG incubated for 3 hrs by competitive fluorescence tracer binding based assay. The following applies: read-out: Ratio IC50.
The species entered for the next data set is Homo sapiens. The experiment in a line: Selectivity ratio of IC50 for inhibition of EFGR-T790M mutant (unknown origin) to IC50 for ErbB4 (unknown origin). The following applies: time 40.0 min.
Another data set concerns the target CYP3A4 (Homo sapiens, UniProt P08684). Description: Potency index, ratio of test compound IC50 to ketoconazole IC50 for inhibition of CYP3A4 (unknown origin) using BOMCC as a substrate incubated for 20 mins by fluorescence based analysis. It is filed as ADME. The following applies: probe BOMCC.
For data set [13], the target named is T1, Receptor tyrosine-protein kinase erbB-4. The experiment in a line: Inhibition of ErbB4 (unknown origin) incubated for 40 mins in presence of Mg/ATP mix by [gamma p33]-ATP based scintillation counting method.
Another data set has as its target Cytochrome P450 2D6 (Homo sapiens, UniProt P10635). The experiment in a line: Inhibition of CYP2D6 (unknown origin) using EOMCC as a substrate incubated for 20 mins by fluorescence based analysis. It is filed as ADME.
The target of data set [14] is RAF proto-oncogene serine/threonine-protein kinase (Homo sapiens, UniProt P04049). Description: Inhibition of RAF1 (unknown origin) incubated for 40 mins in presence of Mg/ATP mix by [gamma p33]-ATP based scintillation counting method.

T1 sequence (Q15303 whole entry): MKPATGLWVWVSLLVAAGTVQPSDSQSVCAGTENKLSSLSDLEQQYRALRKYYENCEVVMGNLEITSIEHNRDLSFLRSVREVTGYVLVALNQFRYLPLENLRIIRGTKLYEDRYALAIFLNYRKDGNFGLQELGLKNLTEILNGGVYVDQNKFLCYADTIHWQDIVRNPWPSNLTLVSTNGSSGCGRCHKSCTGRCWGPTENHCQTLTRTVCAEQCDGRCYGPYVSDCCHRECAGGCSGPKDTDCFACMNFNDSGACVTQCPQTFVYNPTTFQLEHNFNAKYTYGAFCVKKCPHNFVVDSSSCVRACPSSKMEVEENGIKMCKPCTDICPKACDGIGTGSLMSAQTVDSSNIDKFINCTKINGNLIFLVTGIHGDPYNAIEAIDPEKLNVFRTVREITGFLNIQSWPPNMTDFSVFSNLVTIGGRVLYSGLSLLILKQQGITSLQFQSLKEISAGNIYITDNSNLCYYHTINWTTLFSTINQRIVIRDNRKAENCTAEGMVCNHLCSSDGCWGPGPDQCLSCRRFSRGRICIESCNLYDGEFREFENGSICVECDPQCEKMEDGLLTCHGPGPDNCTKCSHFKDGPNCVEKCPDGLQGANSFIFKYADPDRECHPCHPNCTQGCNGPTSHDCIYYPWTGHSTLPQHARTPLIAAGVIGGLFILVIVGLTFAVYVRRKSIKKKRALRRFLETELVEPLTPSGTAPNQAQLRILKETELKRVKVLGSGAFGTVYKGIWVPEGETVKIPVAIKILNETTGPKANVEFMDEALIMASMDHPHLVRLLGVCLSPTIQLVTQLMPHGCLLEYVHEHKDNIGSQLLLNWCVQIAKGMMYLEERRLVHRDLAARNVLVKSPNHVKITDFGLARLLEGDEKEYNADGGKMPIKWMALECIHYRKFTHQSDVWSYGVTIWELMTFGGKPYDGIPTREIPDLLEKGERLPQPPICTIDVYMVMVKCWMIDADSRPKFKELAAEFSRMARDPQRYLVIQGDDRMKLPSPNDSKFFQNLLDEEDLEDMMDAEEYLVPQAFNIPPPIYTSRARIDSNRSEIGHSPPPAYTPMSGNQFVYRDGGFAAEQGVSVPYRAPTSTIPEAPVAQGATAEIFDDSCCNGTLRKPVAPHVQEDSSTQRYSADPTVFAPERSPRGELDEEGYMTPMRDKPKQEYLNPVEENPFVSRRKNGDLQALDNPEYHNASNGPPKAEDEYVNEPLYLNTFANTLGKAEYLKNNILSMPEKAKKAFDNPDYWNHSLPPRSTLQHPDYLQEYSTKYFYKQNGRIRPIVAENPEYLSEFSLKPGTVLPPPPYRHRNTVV
Chain of CYP3A4 (P08684 whole entry): as the sequence (P08684 whole entry) above
Chain of Epidermal growth factor receptor (Homo sapiens, UniProt P00533, T790M) (P00533 25-1210 T790M limits assumed): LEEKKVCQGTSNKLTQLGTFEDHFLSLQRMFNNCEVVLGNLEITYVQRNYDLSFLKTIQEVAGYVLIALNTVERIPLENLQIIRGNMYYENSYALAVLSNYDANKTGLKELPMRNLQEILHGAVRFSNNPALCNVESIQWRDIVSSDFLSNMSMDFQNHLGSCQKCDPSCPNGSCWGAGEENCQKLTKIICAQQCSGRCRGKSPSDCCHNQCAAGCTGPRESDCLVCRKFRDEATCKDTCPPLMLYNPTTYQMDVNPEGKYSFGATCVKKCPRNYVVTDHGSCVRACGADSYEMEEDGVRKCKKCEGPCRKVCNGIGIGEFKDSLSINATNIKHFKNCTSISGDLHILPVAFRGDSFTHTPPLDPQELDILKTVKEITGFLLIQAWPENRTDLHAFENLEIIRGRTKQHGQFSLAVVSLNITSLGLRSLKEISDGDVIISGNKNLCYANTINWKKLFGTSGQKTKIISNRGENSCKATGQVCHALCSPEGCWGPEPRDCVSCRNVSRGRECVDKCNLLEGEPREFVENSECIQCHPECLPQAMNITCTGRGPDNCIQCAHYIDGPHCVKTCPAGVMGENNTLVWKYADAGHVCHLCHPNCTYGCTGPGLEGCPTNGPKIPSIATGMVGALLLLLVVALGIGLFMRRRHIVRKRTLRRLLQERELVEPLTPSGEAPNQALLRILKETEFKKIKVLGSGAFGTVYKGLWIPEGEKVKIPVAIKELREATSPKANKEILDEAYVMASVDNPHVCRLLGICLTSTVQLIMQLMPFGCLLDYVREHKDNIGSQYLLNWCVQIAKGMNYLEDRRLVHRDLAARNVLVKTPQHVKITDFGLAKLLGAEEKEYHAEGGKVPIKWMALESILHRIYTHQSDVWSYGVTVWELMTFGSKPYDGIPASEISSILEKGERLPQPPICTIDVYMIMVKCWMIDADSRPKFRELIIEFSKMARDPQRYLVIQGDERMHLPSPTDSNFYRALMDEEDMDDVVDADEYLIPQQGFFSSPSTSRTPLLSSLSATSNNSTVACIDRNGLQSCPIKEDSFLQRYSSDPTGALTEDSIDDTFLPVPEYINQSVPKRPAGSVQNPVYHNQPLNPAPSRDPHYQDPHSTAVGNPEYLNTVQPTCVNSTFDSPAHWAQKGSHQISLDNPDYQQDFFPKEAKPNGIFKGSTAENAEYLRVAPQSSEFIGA
Chain of Cytochrome P450 2D6 (P10635 whole entry): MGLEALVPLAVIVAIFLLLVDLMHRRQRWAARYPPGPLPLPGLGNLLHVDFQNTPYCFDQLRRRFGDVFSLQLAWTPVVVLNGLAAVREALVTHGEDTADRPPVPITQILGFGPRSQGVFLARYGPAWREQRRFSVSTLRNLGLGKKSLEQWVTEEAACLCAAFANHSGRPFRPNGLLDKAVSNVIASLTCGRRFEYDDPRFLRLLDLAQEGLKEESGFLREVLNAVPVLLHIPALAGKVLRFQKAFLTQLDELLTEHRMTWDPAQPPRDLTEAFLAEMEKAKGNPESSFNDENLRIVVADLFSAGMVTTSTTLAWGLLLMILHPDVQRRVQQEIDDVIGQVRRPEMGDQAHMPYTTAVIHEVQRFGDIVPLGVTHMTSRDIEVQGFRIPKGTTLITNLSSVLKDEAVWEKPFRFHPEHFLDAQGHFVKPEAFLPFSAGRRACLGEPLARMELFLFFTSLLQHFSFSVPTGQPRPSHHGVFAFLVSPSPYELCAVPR

What is called IC50 is the point on the concentration scale where inhibition reaches its midpoint. As usually defined, the inhibition is the change of the read-out against control, counted positive when it falls. With `c1ccc(COc2cccc(-c3nc4sccn4c3-c3ccncn3)c2)cc1`, the IC50 in data set [1] was 12800 nM; in data set [2] it was 1000 nM; on Cytochrome P450 3A4, 20900 nM; in [3], 380 nM; in [4], 8560 nM; in data set [5] it was 710 nM. In addition, the 50% inhibitory concentration (IC50) in data set [6] was found to be 7060 nM; in data set [9], 1590 nM; in [10], 3250 nM; in data set [11], 1360 nM; in [12], 4350 nM; in [13] it was 17.7 nM. In addition, the IC50 against Cytochrome P450 2D6 was more than 90000 nM; in [14], 2030 nM. Moreover, the growth at 10 µM in data set [7] came to 78.4%. Further, the inhibition in data set [8] is more than 60%. The selectivity ratio at 3 h on hERG (KCNH2) is 530. For the same compound, the Selectivity Index in the data set filed under Homo sapiens is 21.5. The selectivity ratio at 20 min on CYP3A4 is 8790.
